Data taken from the NIST ThermoML archive (doi:10.1016/j.tca.2017.04.014).

Experiment: xn = mol fraction of the nth substance listed
Settings: 298.15 K, 101.3 kPa, Crystal

[O-2].[O-2].[Th+4] [thorium dioxide] + [O-2].[O-2].[U+4]
mass density [kg/m3]
Settings	x1 = 0.3	x1 = 0.5	x1 = 0.6	x1 = 0.7	x1 = 0.8	x1 = 0.9	x1 = 1
From pellet mass and volume	8570	8600	8410	9020	9240	8800	9390
X-ray diffraction	10810	10810	10640	10480	10350	10170	10000
buoyancy	8960	8780	8690	9290	9590	9210	9430
